Results as given in patent publication US9169241B2, “Quinolinyloxyphenylsulfonamides” (Max-Planck-Gesellschaft Zur Forderung der Wissenschaften …, priority 2009, dated 2015).
Like-named read-outs stand apart in the source and are kept apart here.

What was measured:
[1] = test system: C8161; experiment: Apoptosis assay (Cellomics, nucleus condensation); type: cell-based; conditions: Homo sapiens, Table III, read-out: Apoptosis induction in C8161
Description: (§1) The Cellomics BioApplication (Thermo Fischer Cellomics Products, Pittsburgh, Pa.) is an automated image analysis algorithm that provides detailed analysis of phenotypes related to apoptosis. As one of the most prominent characteristics of apoptotics cell a nucleus condensation takes place. This can be measured fluorescence signal intensity using a CCD camera on fully automated microscope system. The Cellomics system is able to quantify the fluorescence intensity per single nucleus and calculates the variation of signal intensity in each cell population. […] Additionally the number of detected cell decreases normally in apoptotic cell populations. In detail 5000 cell per 96 well were labeled with DNA intercalating dye (Hoechst 33342, Sigma, Steinheim, Germany) to visualize the nucleus in a fluorescence microscope under live conditions. The apoptosis assay was performed 24 h and 48 h after addition of compound at concentrations 12.5 μM, 6.25 μM, 3.125 μM, 1.56 μM, 0.78 μM, 0.39 μM as well as DMSO control for 48 h.

[2] = test system: Hs578T; experiment: Apoptosis assay (Cellomics, nucleus condensation); type: cell-based; conditions: Homo sapiens, Hs-578T, Table III, read-out: Apoptosis induction in Hs578T
Description: as §1

[3] = test system: SF126; experiment: Apoptosis assay (Cellomics, nucleus condensation); type: cell-based; conditions: Homo sapiens, SF-126, Table III, read-out: Apoptosis induction in SF126
Description: as §1

[4] = test system: SF763; experiment: Apoptosis assay (Cellomics, nucleus condensation); type: cell-based; conditions: Table III, read-out: Apoptosis induction in SF763
Description: as §1

[5] = test system: U118; experiment: Apoptosis assay (Cellomics, nucleus condensation); type: cell-based; conditions: Table III, read-out: Apoptosis induction in U118
Description: as §1

[6] = test system: U138; experiment: Apoptosis assay (Cellomics, nucleus condensation); type: cell-based; conditions: Table III, read-out: Apoptosis induction in U138
Description: as §1

[7] = test system: indicated cell line; experiment: Wound healing migration assay (Table IV); type: cell-based; conditions: compounds at 12.5, 6.25, 3.125 μM, 48 h-72 h
Procedure: This method mimics cell migration during wound healing in vivo. The basic steps involve creating a “wound” in a cell monolayer, capturing the images at the beginning and at regular intervals during cell migration to close the wound, and comparing the images to quantify the migration rate of the cells. In detail, 150000 cell/24 well have been seeded and allowed to form a monolayer overnight. Subsequently a “wound” or “scratch” has been performed with a 1000 μl pipette tip. The STDV of wound size is normally below 10% at time point t0. The assay was stopped by fixation with 0.05% Crystal violet/20% methanol when control scratches were closed. The assay was terminated between 48 h and 72 h depending on the migration potential of the indicated cell line. The “wounds” were visualized with a Zeiss Axiovert S100 microscope (Carl Zeiss UK, Welwyn Garden City, UK). The tested compounds were used at 12.5 μM, 6.25, 3.125 μM and DMSO control. IC50 values have been calculated as 50% wound size in between t0 and t48 or t72.

[8] = test system: Hs578T; experiment: Matrigel outgrowth assay/branching assay; type: cell-based; conditions: Homo sapiens, Hs-578T; HS578T cell line; Table Ib; read-out: Total branching inhibition in Matrigel HS578T
How it was run: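 Step one: Matrigel (3 mg/ml) is set for 1 h at 37° C. Step two: 5000 cells per well go on in medium with compound (0.78–3.125 μM) or DMSO. Step three: images at 48, 72 and 96 h are scored for complete loss of branching.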

[9] = test system: tumor cell; experiment: Matrigel outgrowth assay/branching assay (Table Va); type: cell-based
Procedure: The Matrigel outgrowth assay is based on the ability of tumor cell to penetrate a solid gel of extracellular matrix proteins mimicking the metastasis formation in vivo. While cells with low invasive potential appear as roundish cell or cell cluster, cells with high invasive potential penetrate the Matrigel and form polymorphic structures. In detail 65 μl of Matrigel matrix (Matrigel™ Matrix, BD Biosciences, Bedford, Mass., USA) with a concentration of 3 mg/ml have been polymerized in 96 well plates for 1 h at 37° C. Subsequently 5000 cell/well were seeded into each well containing cell culture medium and indicated compound with concentrations of 3.125 μM, 1.56 μM and 0.78 μM as well as DMSO control. After 48 h, 72 h and 96 h images of cell were taken on an inverted microscope using a 5× objective (Zeiss Axiovert S100 microscope Carl Zeiss UK, Welwyn Garden City, UK). Only compound concentrations were total branching inhibition was evident were accounted as positive. Method was used as previously described, with some modifications (Thompson E W, et al. Association of increased basement membrane invasiveness with absence of estrogen receptor and expression of vimentin in human breast cancer cell lines. J Cell Physiol 1992; 150:534-44).

[10] = test system: cells; experiment: Boyden chamber migration assay (Table VI); type: cell-based; conditions: Homo sapiens, Hs-578T, 16 h, Hs578T cells; 16 h migration
Procedure: The Boyden chamber assay is based on a chamber of two medium-filled compartments separated by a microporous membrane of 8 μM (Cell culture insert 8.0 μM pore size, BD Biosciences, Bedford, Mass.). The boyden chamber migration assays were carried out according to the supplier's instructions. In general, 20000 cells are placed in the upper compartment with medium containing 0% FCS plus 0.1% BSA and are allowed to migrate 16 h through the pores of the membrane into the lower compartment, which is filled with cell culture medium containing 10% FCS as chemotactic agents. The cells remaining in the insert were removed with a cotton swab, and the cells on the bottom of the filter were fixed and counted. (Zhang Y X, et al. AXL is a potential target for therapeutic intervention in breast cancer progression. Cancer Res. 2008; 68:1905-15).

[11] = Homo sapiens, C8161 cells, read-out: IC50 Wound healing Assay C8161
[12] = SF763 cells, read-out: IC50 Wound healing Assay SF763
[13] = Homo sapiens, C8161 cells, read-out: Total branching inhibition in Matrigel C8161
[14] = Homo sapiens, Hs-578T, Hs578T cells, read-out: Total branching inhibition in Matrigel Hs578T
[15] = U118 cells, read-out: Total branching inhibition in Matrigel U118
[16] = U138 cells, read-out: Total branching inhibition in Matrigel U138

## COc1cc2c(Oc3ccc(NS(=O)(=O)c4ccc(F)c(F)c4F)cc3F)ccnc2cc1OCCCN1CCN(C)CC1 [Example 17, 2,3,4-Trifluoro-N-(3-fluoro-4-{6-methoxy-7-[3-(4-methyl-piperazin-1-yl)-propoxy]-quinolin-4-yloxy}-phenyl)-benzenesulfonamide]
[1]
  IC50: ≤ 12.5 µM
[2]
  IC50: ≤ 12.5 µM
[3]
  IC50: ≤ 12.5 µM
[4]
  IC50: ≤ 12.5 µM
[5]
  IC50: 12.5 to 50 µM
[6]
  IC50: ≤ 12.5 µM
[7]; [11]
  IC50: ≤ 12.5 µM
[7]; [12]
  IC50: 12.5 to 50 µM
[8]
  IC50: ≤ 10 µM
[9]; [13]
  IC50: ≤ 5 µM
[9]; [14]
  IC50: ≤ 5 µM
[9]; [15]
  IC50: ≤ 5 µM
[9]; [16]
  IC50: 5 to 50 µM
[10]
  IC50: ≤ 5 µM
other
  melting point: 88 to 90 °C

## COc1cc2c(Oc3ccc(NS(=O)(=O)c4ccccc4F)cc3F)ccnc2cc1OCCCN1CCN(C)CC1 [Example 26, 2-Fluoro-N-(3-fluoro-4-{6-methoxy-7-[3-(4-methyl-piperazin-1-yl)-propoxy]-quinolin-4-yloxy}-phenyl)-benzenesulfonamide]
[1]
  IC50: ≤ 12.5 µM
[2]
  IC50: ≤ 12.5 µM
[3]
  IC50: 12.5 to 50 µM
[4]
  IC50: ≤ 12.5 µM
[5]
  IC50: 12.5 to 50 µM
[6]
  IC50: ≤ 12.5 µM
[7]; [11]
  IC50: 12.5 to 50 µM
[7]; [12]
  IC50: ≤ 12.5 µM
[8]
  IC50: ≤ 10 µM
[9]; [13]
  IC50: ≤ 5 µM
[9]; [14]
  IC50: ≤ 5 µM
[9]; [15]
  IC50: ≤ 5 µM
[9]; [16]
  IC50: 5 to 50 µM
[10]
  IC50: ≤ 5 µM
other
  melting point: 185 to 186 °C
